Data: patent US20190119348A1, “PARATHYROID HORMONE RECEPTOR 1 ANTAGONIST AND INVERSE AGONIST POLYPEPTIDES AND METHODS OF THEIR USE” (The General Hospital Corporation, priority 2016, published 2019)
Like-named read-outs stand apart in the source and are kept apart here. Where a SMILES comes first, the peptide text is derived from it. [ ]: non-standard residue; d: D form. The star is where a group is joined. 5TAMRA = CN(C)c1ccc2c(c1)Oc1cc(N(C)C)ccc1C21OC(=O)c2cc(C(=O)*)ccc21

Experiments:
PTHR1 [1] = biological target: T1, PTHR1 (Homo sapiens, UniProt Q03431); assay: Residual agonist activity, cAMP luminescence in GP-2.3 cells; assay type: cell-based; conditions: ligands applied directly to GP-2.3 cells
T1 construct: expressed in transfected cells; host or cells: GP-2.3 (HEK-293 stably transfected with hPTHR1 and GloSensor)
T1 sequence (Q03431 27-593): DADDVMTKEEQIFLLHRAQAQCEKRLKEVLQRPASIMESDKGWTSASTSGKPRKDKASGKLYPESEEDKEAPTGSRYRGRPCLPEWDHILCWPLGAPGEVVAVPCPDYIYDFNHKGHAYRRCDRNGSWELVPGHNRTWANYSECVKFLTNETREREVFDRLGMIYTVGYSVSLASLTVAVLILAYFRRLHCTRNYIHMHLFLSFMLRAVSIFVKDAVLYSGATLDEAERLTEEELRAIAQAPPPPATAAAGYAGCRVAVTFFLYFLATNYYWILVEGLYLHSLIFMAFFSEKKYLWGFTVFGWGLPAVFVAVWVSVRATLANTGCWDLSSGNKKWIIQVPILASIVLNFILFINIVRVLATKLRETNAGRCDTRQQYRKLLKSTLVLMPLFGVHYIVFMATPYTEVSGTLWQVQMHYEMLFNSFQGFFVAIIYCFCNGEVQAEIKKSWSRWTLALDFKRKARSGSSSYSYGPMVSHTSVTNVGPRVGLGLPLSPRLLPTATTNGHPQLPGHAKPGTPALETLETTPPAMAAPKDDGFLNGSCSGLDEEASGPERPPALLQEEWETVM
Procedure: (§1) cAMP signaling was assessed in the HEK293-derived or SaOS2-derived cell lines stably expressing the luciferase-based GloSensor™ cAMP reporter (Hattersley et al., Paper presented at: Novel Signaling Mechanisms and Bone Cell Biology 2014; Binkowski et al., Methods in molecular biology. 756:263-271). HEK-293 cells were further transfected to stably express the hPTHR1, hPTHR1-H223R, or hPTHR1-T410P. The cells were seeded into 96-well white plates and were assayed 24 to 48 hours post-confluency. Assays were performed at room temperature in CO2-independent culture media (Life Technologies, Corp., Carlsbad, Calif.) containing 0.1% BSA (CIDB). The cells were pre-loaded with luciferin (0.5 mM in CIDB) for 15 minutes, then PTH peptides were added at varying concentrations. cAMP-dependent luminescence was measured at two-minute intervals using a PerkinElmer Envision plate reader. The time at which maximum luminescence (cps) observed with agonist alone, typically at 10-20 minutes after agonist addition, was used to obtain data from wells containing antagonist with or without agonist, to thus generate antagonist ligand dose-response curves. The resulting cps values were then plotted against ligand concentration using GraphPad Prism 7.0 software and a four-parameter logistics curve fitting equation, which yielded parameters of inhibitory potency (pIC50).

PTHR1 [2] = biological target: T1, PTHR1; assay: Antagonism of PTH(1-34)-induced cAMP response (GloSensor) in GP-2.3 cells; assay type: cell-based; conditions: PTH(1-34) 1 nM
Procedure: as §1
(§2) Pharmacological properties of the ligands were assessed in cells expressing the PTHR1 and the GloSensor™ cAMP reporter. The assays used GP-2.3 cells, derived from HEK293 cells by stable transfection with the hPTHR1 and GloSensor™, as well as SGS-72 cells, which are derived from the human osteosarcoma cell line, Saos-2, in which is endogenously expressed the hPTHR1, by stable transfection with GloSensor™. Binding of representative polypeptides to the PTHR1 was assessed in GP-2.3 cells by radioligand competition methods (FIGS. 1A and 1B, Table 3).
[…] concentration of antagonist that inhibited the maximum response to PTH(1-34)-induced in the absence of antagonist (at ˜40 minutes) is reported in units of -log M (pIC50), and the corresponding nanomolar value is shown below each pIC50 value. Data are means of the number of experiments indicated (n). The PTH(1-34)-induced maximum luminescence was ˜80,000 cps and the basal was ˜1,000 cps. TMR indicates Lys13 modified at epsilon amino function with TMR, P vs. inhibition by dW12,Y34-bPTH(7-34).

endogenous hPTHR1 = biological target: T2, endogenous hPTHR1 (Homo sapiens, UniProt Q03431); assay: Antagonism of PTH(1-34)- and PTHrP(1-36)-induced cAMP response (GloSensor) in SGS-72 cells; assay type: cell-based
T2 construct: Saos-2, in which is endogenously expressed the hPTHR1; endogenous in cells
T2 sequence (Q03431 27-593): T1 sequence (Q03431 27-593)
Procedure: cAMP signaling was assessed in the HEK293-derived or SaOS2-derived cell lines stably expressing the luciferase-based GloSensorTM cAMP reporter ([…] al., Paper presented at: Novel Signaling Mechanisms and Bone Cell Biology 2014; Binkowski et al., Methods in molecular biology. 756:263-271). HEK-293 cells were further transfected to stably express the hPTHR1, hPTHR1-H223R, or hPTHR1-T410P. The cells were seeded into 96-well white plates and were assayed 24 to 48 hours post-confluency. Assays were performed at room temperature in CO2-independent culture media (Life Technologies, Corp., Carlsbad, Calif.) containing 0.1% BSA (CIDB). The cells were pre-loaded with luciferin (0.5 mM in CIDB) for 15 minutes, then PTH peptides were added at varying concentrations. cAMP-dependent luminescence was measured at two-minute intervals using a PerkinElmer Envision plate reader. The time at which maximum luminescence (cps) observed with agonist alone, typically at 10-20 minutes after agonist addition, was used to obtain data from wells containing antagonist with or without agonist, to thus generate antagonist ligand dose-response curves. The resulting cps values were then plotted against ligand concentration using GraphPad Prism 7.0 software and a four-parameter logistics curve fitting equation, which yielded parameters of inhibitory potency (pIC50). Pharmacological properties of the ligands were assessed in cells expressing the PTHR1 and the GloSensorTM cAMP reporter. The assays used GP-2.3 cells, derived from HEK293 cells by stable transfection with the hPTHR1 and GloSensorTM, as well as SGS-72 cells, which are derived from the human osteosarcoma cell line, Saos-2, in which is endogenously expressed the hPTHR1, by stable transfection with GloSensorTM. Binding of representative polypeptides to the PTHR1 was assessed in GP-2.3 cells by radioligand competition methods (FIGS. 1A and 1B, Table 3). […] In Table 5, antagonist assays were performed in SGS-72 cells (SaOS2 cells with stable GloSensorTM cAMP reporter) at room temperature. […] The mean (±sem) concentration of antagonist that inhibited the maximum agonist-induced response observed in the absence of antagonist (at 40 minutes) is reported in units of -log M (pIC50), and the corresponding nanomolar value is shown below each pIC50 value. Data are means of the number of seven experiments. The PTH(1-34)-induced maximum luminescence was 500,000 cps and the basal was 5,000 cps. TMR indicates Lys13 modified at epsilon amino function with TMR. The data are illustrated in FIG. 7A. […] Date are means (±SEM) of the number of separate experiments indicated by n.

PTHR1 (hPTHR1) = biological target: T3, PTHR1 (hPTHR1) (Homo sapiens, UniProt Q03431); assay: Radioligand competition binding in GP-2.3 cells; conditions: radioligand competition
T3 construct: expressed in transfected cells; host or cells: GP-2.3 (HEK-293 stably transfected with hPTHR1 and GloSensor)
T3 sequence (Q03431 27-593): T1 sequence (Q03431 27-593)
Procedure: (§3) Intact cell binding reactions were performed in 96-well plates, and, following incubation, the cells were lysed with 1N NaOH, and the lysate was counted for gamma radiation. For membrane dissociation assays, reactions were assembled in 15 cc tubes, and, at times following membrane addition (t=0), aliquots were withdrawn and filtered through a well of a vacuum filtration 96-well plate, rinsed, and, after washing, the filters were removed and counted for gamma irradiation. […] Curves were fit to the data using a four-parameter sigmoidal dose-response equation.
as §2
The assays were performed in GP-2.3 cells with the two tracer ^125I-radioligands shown; values are half-maximal inhibitory concentration (pIC50) and corresponding nanomolar value (below) derived from curve fitting ligand dose-response data. Data are means of four experiments.

PTHR1 [3] = biological target: T1, PTHR1; assay: Confocal microscopy of TMR-ligand internalization in GP-2.3 cells; assay type: cell-based; conditions: 15 minutes after ligand addition (100 nM)
Procedure: Confocal fluorescence microscopy images were acquired using Olympus FV-1000 MPE confocal system (Center Valley, Pa. 18034), performed by the Photopathology Core facility of the Wellman Center for Photomedicine at the Massachusetts General Hospital. Images were captured with a 40× (LUMPLFL 0.8NA WD 3.3 mm) water-immersion objective, and with 405 nm and 559 nm excitation lasers, at a resolution of 1024×1024.
The cells were cultured on glass cover-slips in 24-well plates to ˜75% of confluency, then treated with PTH^TMR ligand (100 nM) in Hank's balanced salts buffer with 0.1% BSA (HBB) for 15 minutes at room temperature, then rinsed thrice with HBB, fixed with 4% formalin for 5 minutes, mounted with vector-shield containing DAPI on a glass microscope slide, viewed on the microscope, and digitally imaged.

PTHR1 [4] = biological target: T1, PTHR1; assay: PTHR1 binding kinetics (dissociation) in GP-2.3 cell membranes
Procedure: as §3, with “Ligand binding to the PTH1 R was assessed in intact GP-2.3 cells or membranes prepared from GP-2.3 cells using a ^125I-PTH peptide analog as tracer radioligand and were incubated at room temperature for 90 minutes. Intact” for “Intact”

With `CC[C@H](C)[C@H](N)C(=O)N[C@@H](CCC(N)=O)C(=O)N[C@@H](CC(C)C)C(=O)N[C@@H](CCSC)C(=O)N[C@@H](Cc1c[nH]cn1)C(=O)N[C@@H](CCC(N)=O)C(=O)N[C@@H](CCCNC(=N)N)C(=O)N[C@@H](C)C(=O)N[C@@H](CCCCN)C(=O)N[C@@H](Cc1c[nH]c2ccccc12)C(=O)N[C@H](C(=O)N[C@@H](CCC(N)=O)C(=O)N[C@@H](CC(=O)O)C(=O)N[C@@H](C)C(=O)N[C@@H](CCCNC(=N)N)C(=O)N[C@@H](CCCNC(=N)N)C(=O)N[C@@H](CCCNC(=N)N)C(=O)N[C@@H](C)C(=O)N[C@@H](Cc1ccccc1)C(=O)N[C@@H](CC(C)C)C(=O)N[C@@H](Cc1c[nH]cn1)C(=O)N[C@@H](CCCCN)C(=O)N[C@@H](CC(C)C)C(=O)N[C@H](C(=O)N[C@@H](C)C(=O)N[C@@H](CCC(=O)O)C(=O)N[C@H](C(=O)N[C@@H](Cc1c[nH]cn1)C(=O)N[C@H](C(=O)N[C@@H](C)C(=O)N[C@@H](CCC(=O)O)C(=O)N[C@H](C(N)=O)[C@@H](C)CC)[C@@H](C)O)[C@@H](C)CC)[C@@H](C)CC)[C@@H](C)CC` [compound 1950, LA-PTH(5-36)] (H-IQLMHQRAKWIQDARRRAFLHKLIAEIHTAEI-NH2; N-terminus assumed) the “residual agonist activity compared with dTrp^12-PTH(7-34)-1894” value (PTHR1 [1]) was “less residual agonist activity”, the “fold more effective inhibition than dTrp^12-PTH(7-34)-1894” value (PTHR1 [2]) was “five” and the IC50 (PTHR1 [2]; pIC50, inhibition of cAMP signal induced by PTH(1-34)) was 100 nM. The “fold more effective inhibition than dTrp^12-PTH(7-34)-1894” value (endogenous hPTHR1; PTH(1-34) 0.3 nM) was roughly 30 fold, the IC50 (endogenous hPTHR1; antagonist pre-treatment 10 minutes, PTHrP(1-36) 0.3 nM, seven experiments, read-out: corresponding nanomolar value vs. PTHrP(1-36) (Table 5)) was 1 nM and the IC50 (endogenous hPTHR1; antagonist pre-treatment 10 minutes, PTHrP(1-36) 0.3 nM, seven experiments, read-out: pIC50 vs. PTHrP(1-36) (Table 5) (converted)) was 0.871 nM. For the same compound, the IC50 (endogenous hPTHR1; corresponding nanomolar value vs. PTH(1-34) (Table 5), antagonist pre-treatment 10 minutes, PTH(1-34) 0.3 nM, seven experiments) was 1 nM, the IC50 (endogenous hPTHR1; pIC50, inhibition of cAMP signal induced by PTH(1-34), PTH(1-34) 0.3 nM) was 2.51 nM and the IC50 (endogenous hPTHR1; pIC50 vs. PTH(1-34) (Table 5), antagonist pre-treatment 10 minutes, PTH(1-34) 0.3 nM, seven experiments) was 0.832 nM. The “apparent PTHR1 affinity compared with dTrp^12-PTH(7-34)-1894” value (PTHR1 (hPTHR1)) was “at least as strong”.
In the case of `CC[C@H](C)[C@H](N)C(=O)N[C@@H](CCC(N)=O)C(=O)N[C@@H](CC(C)C)C(=O)N[C@@H](CCSC)C(=O)N[C@@H](Cc1c[nH]cn1)C(=O)N[C@@H](CCC(N)=O)C(=O)N[C@@H](CCCNC(=N)N)C(=O)N[C@H](Cc1c[nH]c2ccccc12)C(=O)N[C@@H](CCCCNC(=O)c1ccc2c(c1)C(=O)OC21c2ccc(N(C)C)cc2Oc2cc(N(C)C)ccc21)C(=O)N[C@@H](Cc1c[nH]c2ccccc12)C(=O)N[C@H](C(=O)N[C@@H](CCC(N)=O)C(=O)N[C@@H](CC(=O)O)C(=O)N[C@@H](C)C(=O)N[C@@H](CCCNC(=N)N)C(=O)N[C@@H](CCCNC(=N)N)C(=O)N[C@@H](CCCNC(=N)N)C(=O)N[C@@H](C)C(=O)N[C@@H](Cc1c[nH]c2ccccc12)C(=O)N[C@@H](CC(C)C)C(=O)N[C@@H](Cc1c[nH]cn1)C(=O)N[C@@H](CCCCN)C(=O)N[C@@H](CC(C)C)C(=O)N[C@H](C(=O)N[C@@H](C)C(=O)N[C@@H](CCC(=O)O)C(=O)N[C@H](C(=O)N[C@@H](Cc1c[nH]cn1)C(=O)N[C@H](C(=O)N[C@@H](C)C(=O)N[C@@H](CCC(=O)O)C(=O)N[C@H](C(N)=O)[C@@H](C)CC)[C@@H](C)O)[C@@H](C)CC)[C@@H](C)CC)[C@@H](C)CC` [compound 1953, TMR-dW12, W23-LA-PTH(5-36)] (H-IQLMHQR[dW]K(5TAMRA)WIQDARRRAWLHKLIAEIHTAEI-NH2; N-terminus assumed), the “ligand internalization (TMR fluorescence)” value (PTHR1 [3]) is reported as “did not internalize”.
“^125I-Nle^8, dTrp^12, Trp^23, Tyr^36-LA-PTH(5-36)-1954” was tested, and the “dissociation from the PTHR1 compared with ^125I-Tyr^36-PTHrP(5-36)-836 and ^125I-M-PTH(1-15)-779” value (PTHR1 [4]) was “dissociated more slowly”.
